12 compounds from PubChem BioAssay (NCI) can be followed below.

Test systems include OVCAR-4 ovarian; SF-539 CNS; A549 NSCLC; 786-0 renal; MOLT-4 leukemia; SK-MEL-28 melanoma; SK-OV-3 ovarian; NCI-H460 lung; PC-3 prostate.
What all share (assay): NCI-60 cell line screen, 48 h

Each structure is given as a SMILES string.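 The compound was tested at five concentrations on cells cultured in 96-well plates, with a 48-hour exposure period. GI50 is the concentration that inhibits growth by half. TGI is the concentration that stops growth completely.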

Turning to `CN1C(c2ccccc2)CC(C)(O)CC1c1ccccc1` (centres undefined), the TGI in the assay with OVCAR-4 ovarian, in the assay with SF-539 CNS, with A549 NSCLC, in the assay on 786-0 renal, in the assay on MOLT-4 leukemia and in the assay on SK-MEL-28 melanoma was greater than 100 µM each time. In addition, the TGI in the assay with SK-OV-3 ovarian and in the assay on NCI-H460 lung was greater than 100 µM each time.
As for `Cn1cnc([N+](=O)[O-])c1Sc1nc2ccccc2o1`, the TGI came to 15 µM with OVCAR-4 ovarian; 24.1 µM in the assay with SF-539 CNS; 75.4 µM with A549 NSCLC; 29.3 µM in the assay on 786-0 renal; 8.99 µM in the assay on MOLT-4 leukemia; 18.6 µM in the assay with SK-MEL-28 melanoma. The TGI was greater than 81.2 µM in the assay on SK-OV-3 ovarian and greater than 71.6 µM with NCI-H460 lung.
Regarding `CCC[CH2][Sn]1([CH2]CCC)[O]C(=O)CN=C(C)c2ccccc2[O]1`, the GI50 is 1.73 µM with OVCAR-4 ovarian; 2.78 µM with SF-539 CNS; 3 µM in the assay on A549 NSCLC; 1.29 µM in the assay on 786-0 renal; 0.74 µM in the assay on MOLT-4 leukemia; 0.868 µM in the assay on SK-MEL-28 melanoma. The GI50 was 2.37 µM in the assay with SK-OV-3 ovarian and 1.79 µM with NCI-H460 lung. The TGI with OVCAR-4 ovarian was 3.62 µM; in the assay with SF-539 CNS it was greater than 100 µM; in the assay with A549 NSCLC it was 9.62 µM; in the assay on 786-0 renal, 2.58 µM; with MOLT-4 leukemia, 5.04 µM; in the assay on SK-MEL-28 melanoma it was 2.11 µM. For the same compound, the TGI in the assay on SK-OV-3 ovarian amounted to 4.14 µM; in the assay on NCI-H460 lung it was 3.55 µM.
For the compound `COC1=CC(c2ccc[nH]2)=N/C1=C\c1[nH]c(C)c(C(=O)Oc2ccccc2)c1C`, the GI50 in the assay with OVCAR-4 ovarian was 0.236 µM; in the assay with SF-539 CNS, 0.36 µM; in the assay with A549 NSCLC, 0.344 µM; in the assay on 786-0 renal, 0.313 µM; in the assay on PC-3 prostate, 0.117 µM; in the assay on SK-MEL-28 melanoma, 0.595 µM. Further, the GI50 in the assay with SK-OV-3 ovarian was 1.68 µM; in the assay on NCI-H460 lung, 0.077 µM. Besides, the TGI was 1.63 µM in the assay with SF-539 CNS; 2.01 µM in the assay with A549 NSCLC; 1.64 µM in the assay on 786-0 renal; greater than 100 µM in the assay on PC-3 prostate; 1.99 µM with SK-MEL-28 melanoma; 7.35 µM in the assay on SK-OV-3 ovarian. For the same compound, the TGI with NCI-H460 lung was 1.4 µM.
Consider `O=C(O)CCC(=O)Oc1ccc(O)c2c1CCCC2=O`, for which the TGI with OVCAR-4 ovarian, in the assay on SF-539 CNS, in the assay with A549 NSCLC, in the assay on 786-0 renal, with MOLT-4 leukemia and in the assay with SK-MEL-28 melanoma was greater than 100 µM in each case. Moreover, the TGI in the assay with SK-OV-3 ovarian and in the assay with NCI-H460 lung was greater than 100 µM in each case.
Turning to `N#CC(C(=O)CCC(=O)Nc1ccc(Cl)cc1)c1ccc(Cl)cc1` (centres undefined), the TGI in the assay on OVCAR-4 ovarian, with SF-539 CNS, in the assay with A549 NSCLC, in the assay on 786-0 renal, in the assay on MOLT-4 leukemia and in the assay with SK-OV-3 ovarian was greater than 100 µM each time. The compound further came in with a TGI with NCI-H460 lung greater than 100 µM.
For the compound `O=C1C(Cl)=C(Cl)C(=O)N1c1ccccc1Cl`, the TGI was greater than 100 µM in the assay on OVCAR-4 ovarian; greater than 100 µM in the assay on SF-539 CNS; greater than 100 µM with A549 NSCLC; greater than 100 µM in the assay with 786-0 renal; greater than 78.5 µM in the assay on MOLT-4 leukemia; greater than 100 µM in the assay with SK-MEL-28 melanoma. Further, the TGI in the assay on SK-OV-3 ovarian and in the assay with NCI-H460 lung was greater than 100 µM in each case.
For `O=C(CCC(=O)Nc1ccc(Cl)cc1)CC(=O)c1ccc2ccccc2c1`, the TGI in the assay with OVCAR-4 ovarian, in the assay on SF-539 CNS, in the assay on A549 NSCLC, in the assay with 786-0 renal, in the assay with MOLT-4 leukemia and with SK-MEL-28 melanoma was greater than 100 µM in each case. Moreover, the TGI in the assay on SK-OV-3 ovarian and in the assay with NCI-H460 lung was greater than 100 µM in each case.
For `COc1ccc(/C(=C/c2ccc3ccccc3c2)c2nn[nH]n2)cc1OC`, the GI50 with OVCAR-4 ovarian was 7.78 µM; with SF-539 CNS, 2.38 µM; in the assay on A549 NSCLC it was 3.8 µM; in the assay with 786-0 renal it was 5.72 µM; in the assay with PC-3 prostate it was 2.36 µM; in the assay on MOLT-4 leukemia, 4.16 µM. The GI50 with SK-MEL-28 melanoma is 8.07 µM; with SK-OV-3 ovarian, 3.63 µM; in the assay on NCI-H460 lung it was 2.81 µM. In addition, the TGI with OVCAR-4 ovarian is greater than 100 µM; with SF-539 CNS, 7.94 µM; in the assay on A549 NSCLC it was greater than 100 µM; with 786-0 renal, greater than 100 µM; with PC-3 prostate, greater than 100 µM; in the assay on MOLT-4 leukemia it was greater than 100 µM. Moreover, the TGI in the assay with SK-MEL-28 melanoma was greater than 100 µM; in the assay with SK-OV-3 ovarian it was greater than 100 µM; in the assay with NCI-H460 lung, 16.3 µM.
`O=C(Nc1ccccc1)n1cc(-c2ccccn2)c(N2CCOCC2)n1`: the TGI is greater than 100 µM with OVCAR-4 ovarian; 57.6 µM with SF-539 CNS; greater than 100 µM in the assay with A549 NSCLC; 74.7 µM in the assay on 786-0 renal; greater than 100 µM in the assay with MOLT-4 leukemia; greater than 100 µM in the assay with SK-OV-3 ovarian. In the assay on NCI-H460 lung, this compound had a TGI greater than 100 µM.
`Cc1ccccc1C=NC12CC3CC(CC(C3)C1)C2`: the TGI in the assay with OVCAR-4 ovarian, in the assay with SF-539 CNS, in the assay on A549 NSCLC, in the assay with 786-0 renal, with MOLT-4 leukemia and in the assay with SK-MEL-28 melanoma was greater than 100 µM in each case. Also, the TGI with SK-OV-3 ovarian and with NCI-H460 lung was greater than 100 µM throughout.
Regarding `COc1ccc(C2CC(c3ccccc3)=NN2C(=O)c2cc(OC)c(OC)c(OC)c2)cc1O` (centres undefined), the GI50 is 0.596 µM in the assay with OVCAR-4 ovarian; 0.288 µM with SF-539 CNS; 0.545 µM with A549 NSCLC; 0.301 µM in the assay with 786-0 renal; 0.369 µM in the assay with PC-3 prostate; 0.469 µM in the assay with MOLT-4 leukemia. In addition, the values for the GI50 in the assay with SK-MEL-28 melanoma, in the assay on SK-OV-3 ovarian and in the assay on NCI-H460 lung were 0.597 µM, 0.414 µM and 0.354 µM, respectively. Besides, the TGI in the assay with OVCAR-4 ovarian is greater than 100 µM; with SF-539 CNS, 1.31 µM; with A549 NSCLC it was greater than 100 µM; in the assay on 786-0 renal it was 3.86 µM; with PC-3 prostate, greater than 52.8 µM; in the assay on MOLT-4 leukemia, 16.2 µM. In addition, the TGI with SK-MEL-28 melanoma was greater than 47.6 µM; in the assay with SK-OV-3 ovarian, 16.6 µM; in the assay on NCI-H460 lung it was 12.6 µM.
